Values quoted from earlier work in patent US20070014831A1, “Biodegradable occlusive device with moisture memory” (priority 2005, published 2007).

Key:
[1] = J Biomater Sci Polymer Edn 1999;10:63-78
[2] = in vivo

For `COC(=O)C1=CO[C@@H](O)[C@@H]2C(CO)=CC[C@H]12` [Genipin], which “cytotoxicity compared with glutaraldehyde” value [1] is on record?
Its value is “significantly less cytotoxic than glutaraldehyde”.

For `O=CCCCC=O` [glutaraldehyde], which “concentration at which cytotoxic” value (tissue culture) is on record?
The value was 10-25 ppm.

And the “concentration at which cytotoxic in tissue culture” value (tissue culture; in tissue culture, as low as)?
The value was ≥ 3 ppm.

And the “glutaraldehyde concentration used to crosslink materials above which a persistent foreign-body reaction occurred” value [2]?
Its value is “above 0.05%”.
